According to patent US5853731A, “Thromboxane A2 Receptor antagonism and antioxidant action of cinnamophilin and its derivatives, their pharmaceutical compositions and uses” (National Science Council, priority 1997, dated 1998):
Like-named read-outs stand apart in the source and are kept apart here.

What was measured:
thromboxane B2 formation = test: Thromboxane B2 formation caused by arachidonic acid (AA); type: cell-based; conditions: for Thromboxane B2: caused by AA
rat thoracic aorta = target: T1, rat thoracic aorta (Rattus norvegicus, UniProt P34978); test: Rat aortic contraction caused by U-46619; type: cell-based, Wistar rat; conditions: for activity at 0.3 µM / activity at 1 µM / activity at 3 µM / activity at 10 µM: rat, read-out: Contraction (% of maximal contraction); for activity at 0.3 µM: cinnamophilin 0.3 μM; for activity at 1 µM: cinnamophilin 1 μM; for activity at 3 µM: cinnamophilin 3 μM; for activity at 10 µM: cinnamophilin 10 μM
T1 construct: The thoracic aorta was isolated and excess fat and connective tissue were removed; from tissue; host or cells: thoracic aorta rings of Wistar rats
T1 sequence (P34978 1-341): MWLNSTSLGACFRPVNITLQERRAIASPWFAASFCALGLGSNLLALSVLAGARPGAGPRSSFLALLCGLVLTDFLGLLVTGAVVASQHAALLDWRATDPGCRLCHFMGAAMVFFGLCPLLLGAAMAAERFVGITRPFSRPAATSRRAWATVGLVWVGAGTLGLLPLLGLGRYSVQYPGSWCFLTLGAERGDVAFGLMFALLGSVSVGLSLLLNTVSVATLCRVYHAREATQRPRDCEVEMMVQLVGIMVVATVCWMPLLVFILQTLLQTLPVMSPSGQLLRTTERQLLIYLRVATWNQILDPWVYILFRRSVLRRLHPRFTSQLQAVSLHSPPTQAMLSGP
Protocol: A. Rat Aortic Contraction
Wistar rats of either sex weighing 250 g to 300 g were killed by a blow to the head. The thoracic aorta was isolated and excess fat and connective tissue were removed. Vessels were cut into rings of about 5 mm in length and mounted in organ baths containing 5 ml Krebs solution of the following composition (mM): NaCl (118.4), KCl (4.7), CaCl (1.9), MgSO4 (1.2), KH2 PO4 (1.2), NaHCO3 (25.0) and glucose (11.7). The tissue bath solution was maintained at 37° C. and gassed with 95% O2 :5% CO2 mixture. Two stainless steel hooks were inserted into the aortic lumen, one was fixed while the other was connected to a transducer. Aortae were equilibrated in the medium for 90 min with three changes of Krebs solution and maintained under an optimal tension of 1 g before specific experimental protocols were initiated.
Contraction was recorded isometrically via a force-displacement transducer connected to a Grass polygraph. Aortae were allowed to preincubate for 15 minutes with cinnamophilin before generating the cumulative concentration-response curve with each agonist for 15-30 min at 3 min intervals. Results are expressed as a percentage of the maximal control response for each agonist.

Kb (rat thoracic aorta; against U-46619, 0.5% DMSO as control, read-out: pA2, rat aortic contraction induced by U-46619 (converted)): 50.1 nM
activity at 0.3 µM (rat thoracic aorta; U-46619 0.005 μM): 0%
activity at 0.3 µM (rat thoracic aorta; U-46619 0.01 μM): 8 ± 2%
activity at 0.3 µM (rat thoracic aorta; U-46619 0.02 μM): 16 ± 4.9%
activity at 0.3 µM (rat thoracic aorta; U-46619 0.05 μM): 35 ± 2%
activity at 0.3 µM (rat thoracic aorta; U-46619 0.1 μM): 52 ± 3%
activity at 0.3 µM (rat thoracic aorta; U-46619 0.2 μM): 65 ± 4%
activity at 0.3 µM (rat thoracic aorta; U-46619 0.5 μM): 79 ± 2%
activity at 0.3 µM (rat thoracic aorta; U-46619 1 μM): 85 ± 4%
activity at 0.3 µM (rat thoracic aorta; U-46619 2 μM): 92 ± 4%
activity at 1 µM (rat thoracic aorta; U-46619 0.02 μM): 3%
activity at 1 µM (rat thoracic aorta; U-46619 0.05 μM): 11 ± 2%
activity at 1 µM (rat thoracic aorta; U-46619 0.1 μM): 22 ± 3%
activity at 1 µM (rat thoracic aorta; U-46619 0.2 μM): 35 ± 3.2%
activity at 1 µM (rat thoracic aorta; U-46619 0.5 μM): 53 ± 3.1%
activity at 1 µM (rat thoracic aorta; U-46619 1 μM): 55 ± 4%
activity at 1 µM (rat thoracic aorta; U-46619 2 μM): 81 ± 4%
activity at 1 µM (rat thoracic aorta; U-46619 5 μM): 88 ± 3%
activity at 3 µM (rat thoracic aorta; U-46619 0.05 μM): 0%
activity at 3 µM (rat thoracic aorta; U-46619 0.1 μM): 8 ± 3.7%
activity at 3 µM (rat thoracic aorta; U-46619 0.2 μM): 15 ± 4.3%
activity at 3 µM (rat thoracic aorta; U-46619 0.5 μM): 34 ± 5.6%
activity at 3 µM (rat thoracic aorta; U-46619 1 μM): 50 ± 5.6%
activity at 3 µM (rat thoracic aorta; U-46619 2 μM): 65 ± 5%
activity at 3 µM (rat thoracic aorta; U-46619 5 μM): 81 ± 3%
activity at 3 µM (rat thoracic aorta; U-46619 10 μM): 90 ± 3%
activity at 10 µM (rat thoracic aorta; U-46619 0.2 μM): 6 ± 4.3%
activity at 10 µM (rat thoracic aorta; U-46619 0.5 μM): 15 ± 3.9%
activity at 10 µM (rat thoracic aorta; U-46619 1 μM): 31 ± 3.8%
activity at 10 µM (rat thoracic aorta; U-46619 2 μM): 45 ± 3%
activity at 10 µM (rat thoracic aorta; U-46619 5 μM): 65 ± 5%
activity at 10 µM (rat thoracic aorta; U-46619 10 μM): 86 ± 4%
SMILES: COc1cc(CC(C)C(C)C(=O)c2ccc(O)c(OC)c2)ccc1O (stereo not shown) [Compound 1, cinnamophilin]
TXA2 formation caused by AA (thromboxane B2 formation; 0.03-10 μM): inhibit markedly the TXA2 formation
Thromboxane B2 (thromboxane B2 formation; conc 0.01 μM): 371 ± 35 ng/mL
Thromboxane B2 (thromboxane B2 formation; conc 0.03 μM): 278 ± 25 ng/mL
Thromboxane B2 (thromboxane B2 formation; conc 0.1 μM): 200 ± 41 ng/mL
Thromboxane B2 (thromboxane B2 formation; conc 0.3 μM): 128 ± 25 ng/mL
Thromboxane B2 (thromboxane B2 formation; conc 1 μM): 69 ± 25 ng/mL
Thromboxane B2 (thromboxane B2 formation; conc 3 μM): 28 ± 10 ng/mL
Thromboxane B2 (thromboxane B2 formation; conc 10 μM): 20 ± 5 ng/mL
